# Data: EP0670711B1, “ANTIFUNGAL MOUTHCARE COMPOSITIONS” (AMBI Inc., priority 1992, dated 1994)
# Tests used:
# Assay type in all cases: cell-based
# Strep. salivarius = experiment: nominal inhibitory concentration (NIC) assay
# Fuso. nucleatum = experiment: nominal inhibitory concentration (NIC) assay
# Peptostrepto. micros = experiment: nominal inhibitory concentration (NIC) assay
# Act. odontolyticus = experiment: nominal inhibitory concentration (NIC) assay
# S mutans NCTC 11061 = experiment: zone diffusion assay; details: solution with 500ppm of each agent
# Text: (§1) The assay was repeated for each of cetyl pyridinium chloride, chlorhexidine or triclosan individually. […]
# W recta NCTC 11489 = experiment: zone diffusion assay; details: solution with 500ppm of each agent
# Text: as §1
# S sanguis NCTC 10904 = experiment: zone diffusion assay; details: solution with 500ppm of each agent
# Text: as §1
# C tropicalis NCTC 3114 = experiment: zone diffusion assay; details: solution with 500ppm of each agent
# Text: as §1
# F nucleatum NCTC 10562 = experiment: zone diffusion assay; details: solution with 500ppm of each agent
# Text: as §1
# A actinomyces NCTC 9709 = experiment: zone diffusion assay; details: solution with 500ppm of each agent
# Text: as §1
# C kefyr NCTC 3106 = experiment: zone diffusion assay; details: solution with 500ppm of each agent
# Text: as §1
# C albicans NCTC 3089 = experiment: zone diffusion assay; details: solution with 500ppm of each agent
# Text: as §1
# Strep.pyogenes = experiment: nominal inhibitory concentration (NIC) assay
# Staph.aureus = experiment: nominal inhibitory concentration (NIC) assay
# Strep. mitis = experiment: nominal inhibitory concentration (NIC) assay
# Act. actinomycetem = experiment: nominal inhibitory concentration (NIC) assay
# Bact. intermedius = experiment: nominal inhibitory concentration (NIC) assay
# Candida organisms = experiment: NIC assay, summary for Candida; details: result in words
# Text: (§2) Thus, lower levels of such antimicrobial agent may be used in the present invention if it intended that such antimicrobial agent is being included principally to provide anti-Candida activity, to supplement the gap in the spectrum of activity of nisin.
# Strep mitior = experiment: nominal inhibitory concentration (NIC) assay
# Candida albicans = experiment: nominal inhibitory concentration (NIC) assay
# Act. israelii = experiment: nominal inhibitory concentration (NIC) assay
# Porph. gingivalis = experiment: nominal inhibitory concentration (NIC) assay
# G.vaginalis = experiment: nominal inhibitory concentration (NIC) assay
# Strep. sanguis = experiment: nominal inhibitory concentration (NIC) assay
# Strep. agalactiæ = experiment: nominal inhibitory concentration (NIC) assay
# Act. naeslundii = experiment: nominal inhibitory concentration (NIC) assay
# [1] = tested on: all the organisms shown in the Example 25 Table 1; experiment: NIC assay, summary over all organisms of Table 1; details: all organisms of Example 25 Table 1 (for CPC: kills all the organisms)
# Text: as §2
# Candida kefyr = experiment: nominal inhibitory concentration (NIC) assay
# Lacto odontolyticus = experiment: nominal inhibitory concentration (NIC) assay
# Candida tropicalis = experiment: nominal inhibitory concentration (NIC) assay
# Strep. milleri = experiment: nominal inhibitory concentration (NIC) assay
# Bact. ureolyticus = experiment: nominal inhibitory concentration (NIC) assay
# Strep.mutans = experiment: nominal inhibitory concentration (NIC) assay
substance,measurement,setting,value
nisin [Ambicin N],NIC,Strep. salivarius,0.18 ppm
same,NIC,Fuso. nucleatum,0.048 ppm
same,NIC,Peptostrepto. micros,>1.28 ppm
same,NIC,Act. odontolyticus,0.12 ppm
same,mean zones,S mutans NCTC 11061,18.36 mm
same,mean zones,W recta NCTC 11489,28.19 mm
same,mean zones,S sanguis NCTC 10904,15.38 mm
same,mean zones,C tropicalis NCTC 3114,0 mm
same,mean zones,F nucleatum NCTC 10562,29.38 mm
same,mean zones,A actinomyces NCTC 9709,23.04 mm
same,mean zones,C kefyr NCTC 3106,0 mm
same,mean zones,C albicans NCTC 3089,0 mm
same,NIC,Strep.pyogenes,0.009 ppm
same,NIC,Staph.aureus,0.13 ppm
same,NIC,Strep. mitis,0.33 ppm
same,NIC,Act. actinomycetem,0.02 ppm
same,NIC,Bact. intermedius,0.91 ppm
same,inhibitory activity against candida species,Candida organisms,lacks effective inhibitory activity
same,NIC,Strep mitior,0.05 ppm
same,NIC,Candida albicans,>128 ppm
same,NIC,Act. israelii,0.53 ppm
same,NIC,Porph. gingivalis,>1.28 ppm
same,NIC,G.vaginalis,0.22 ppm
same,NIC,Strep. sanguis,0.23 ppm
same,NIC,Strep. agalactiæ,0.22 ppm
same,NIC,Act. naeslundii,>12.8 ppm
same,levels needed to inhibit all the desired oral microrganisms,[1],about 0.99 ppm
same,NIC,Candida kefyr,>128 ppm
same,NIC,Lacto odontolyticus,0.02 ppm
same,NIC,Candida tropicalis,>128 ppm
same,NIC,Strep. milleri,0.14 ppm
same,NIC,Bact. ureolyticus,0.035 ppm
same,NIC,Strep.mutans,0.43 ppm
